Source: patent publication US20170087113A1, “METHODS FOR TREATING UREA CYCLE DISORDERS TO PREVENT HYPERAMMONEMIC CRISES BY CONTROLLING BLOOD AMMONIA LEVELS” (HORIZON THERAPEUTICS, LLC, priority 2014, published 2017)

Experiments:
[1] = tested on: UCD patients; test: Occurrence of hyperammonemic crises (HAC): 12 months pre-enrollment on NaPBA versus 12-month GPB treatment (studies HPN-100-005, -007, -012); type: in vivo, human
Source text: Data from four short-term switchover (SO) studies and three 12-month safety extension (SE) studies in adult and pediatric UCD patients were included in the analyses; all have been previously described. […] Most patients completing these protocols plus additional patients (a total of 100 of whom 49 were pediatric) were enrolled into safety extension studies and received GPB for 12 months (Diaz 2013), (Mokhatarani 2013), (Berry 2014).
All protocols and informed consents were reviewed and approved by the Investigational Review Board of each participating institution prior to initiation. […] In all studies, patients received GPB three times daily (or more frequently in small children to match their prior NaPBA schedule) at a daily dose equivalent to their previously prescribed NaPBA dose. […] Fasting ammonia and glutamine levels were analyzed as a predictor of HACs during long-term treatment.
(§1) During the 12 month studies, blood samples for ammonia and glutamine analyses were collected monthly and information on HACs was recorded. […] Ammonia and glutamine concentrations were measured by an accredited hospital laboratory at each study site and ammonia values were normalized to a standard range of 9 to 35 μmol/L.
Data for 100 UCD subjects from three clinical trials (HPN-100-005, HPN-100-007, and HPN-100-012) were analyzed to evaluate the correlation between fasting ammonia levels and HAC (Table 1). Patients were treated for 12 months with GPB during the study. There was an almost equal split in the number of subjects who were adults (51%) and children (49%), defined as age<18 years at the time of enrollment. In this population, 30 patients had experienced a total of 54 HACs in the 12 months prior to the study and 19 patients experienced a total of 27 HACs during the study (Table 1). Baseline ammonia was defined as the subject's fasting ammonia level taken either at month zero or at the screening visit depending on which study the subject was enrolled in and whether the subject was enrolled in previous studies.

[2] = tested on: blood ammonia; test: Total ammonia exposure (TNAUC of monthly ammonia) during 12-month GPB treatment; type: in vivo, human; design: TNAUC ammonia, mean: unit not given beside the values; conditions: for TNAUC ammonia, mean: patients with HAC, N=19; for TNAUC ammonia, mean (SD): patients with no HAC, N=81
Description: as §1
The relationship between total ammonia exposure over time and the risk of HAC occurrence was explored by calculating time normalized area under the curve (TNAUC12months) for ammonia for patients with and without an HAC during the 12-month treatment with GPB (Table 13). The AUC for ammonia, measured monthly, was calculated for each patient using the trapezoid rule over the course of the 12 month study. To normalize the AUC, TNAUCxmonth, AUC was divided by the final study month of an ammonia assessment.

[3] = tested on: glutamine; test: Glutamine levels and exposure during 12-month GPB treatment; type: in vivo, human
Description: as §1
The relationship between glutamine levels and ammonia categories was also analyzed. […] Glutamine levels were analyzed over the 12 month study period in patients treated for 12 months with GPB. Monthly glutamine levels were generally higher in patients in the higher baseline ammonia ULN groups and, by three months of treatment, had decreased in the patients with the highest baseline glutamine at baseline (FIG. 14A).

[4] = tested on: UCD patients; test: Duration of HAC during the 12-month GPB studies; type: in vivo, human
Description: The relationship between ammonia exposure and duration of HAC was analyzed. Ammonia exposure was characterized three different ways: peak ammonia during crisis, total ammonia during crisis and ammonia at time of admission. The majority of the HACs typically lasted a day, and a steep drop off in the distribution was seen after 2 days. (Note: two subjects were excluded with 20 days of duration of HAC in this analyses).

[5] = tested on: venous ammonia; conditions: study HPN-100-006 (Diaz 2013); cited from earlier work
[6] = all patients N=100, pre-study (NaPBA) or during study (GPB)
[7] = study 005, N=17, pre-study (NaPBA) or during study (GPB)
[8] = study 007, N=60, pre-study (NaPBA) or during study (GPB)
[9] = study 012, N=23, pre-study (NaPBA) or during study (GPB)
[10] = subjects ages 6 years or higher, total N=77, pre-study (NaPBA) or study (GPB)

SMILES: O=C(CCCc1ccccc1)OCC(COC(=O)CCCc1ccccc1)OC(=O)CCCc1ccccc1 [GPB, glycerol phenylbutyrate]
- Lower HAC incidence rate during study (GPB) than pre-enrollment ([1]; 0.288 versus […]): roughly 50%
- Proportion of patients who experienced an HAC ([1]; Group 1 study sites (33 patients, >50% with baseline ammonia <0.5 ULN)): 12%
- Proportion of patients who experienced an HAC ([1]; Group 2 study sites (29 patients)): 21%
- Proportion of patients who experienced an HAC ([1]; Group 3 study sites (38 patients)): 24%
- # HAC ([1]; Month 0-3 of GPB treatment): 5
- % of Total HAC ([1]; Month 0-3 of GPB treatment): (18.5%)
- HAC Incidence Rate/month ([1]; Month 0-3 of GPB treatment): 0.0170
- # HAC ([1]; Month 0-6 of GPB treatment): 13
- % of Total HAC ([1]; Month 0-6 of GPB treatment): (48.1%)
- HAC Incidence Rate/month ([1]; Month 0-6 of GPB treatment): 0.0224
- # HAC ([1]; Month 0-9 of GPB treatment): 20
- % of Total HAC ([1]; Month 0-9 of GPB treatment): (74.1%)
- HAC Incidence Rate/month ([1]; Month 0-9 of GPB treatment): 0.0234
- # HAC ([1]; Month 0-12 of GPB treatment): 27
- % of Total HAC ([1]; Month 0-12 of GPB treatment): (100%)
- HAC Incidence Rate/month ([1]; Month 0-12 of GPB treatment): 0.0240
- Proportion of patients who experienced an HAC during the study ([1]; OTC deficiency (n=69)): 18.8%
- 12-month incidence of HAC ([1]; adult (≧18 years)): 0.371
- Proportion of patients who experienced an HAC ([1]; adult (≧18 years)): 13.7%
- Proportion of patients with no HAC ([1]; adult ≧18 years, during study): 86.3%
- Subjects who had not experienced an HAC (Kaplan-Meier, HAC-free survival) ([1]; after about one year of follow-up during treatment with GPB): 80%
- Proportion of patients who experienced an HAC ([1]; age 6-11 years, during study): 23.5%
- Proportion of patients with no HAC ([1]; age 6-11 years, during study): 76.5%
- Proportion of patients who experienced an HAC ([1]; age 12-17 years, during study): 11.1%
- Proportion of patients with no HAC ([1]; age 12-17 years, during study): 88.9%
- Proportion of patients who experienced an HAC ([1]; age <6 years, during study): 30.4%
- Proportion of patients with no HAC ([1]; age <6 years, during study): 69.6%
- # of HA events (total no. of HAC) ([1]; all patients N=100, 12 months pre-study (NaPBA) or during study (GPB)): 27
- N with ≧1 HA events (number of patients with HAC) [1, 6]: 19
- Proportion of patients who experienced an HAC [1, 6]: 19.0%
- Proportion of patients with no HAC ([1]; all patients, during study): 81.0%
- Proportion of patients with no HAC ([1]; baseline ammonia 0-<0.5 ULN, during study): 89.7%
- Proportion of patients with no HAC ([1]; baseline ammonia 0.5-<1.0 ULN, during study): 85.3%
- Proportion of patients with no HAC ([1]; baseline ammonia ≧1 ULN, during study): 63.0%
- 12-month incidence of HAC ([1]; female): 0.314
- Proportion of patients who experienced an HAC ([1]; female): 16.4%
- Proportion of patients with no HAC ([1]; female, during study): 83.6%
- 12-month incidence of HAC ([1]; male): 0.275
- Proportion of patients who experienced an HAC ([1]; male): 24.2%
- Proportion of patients with no HAC ([1]; male, during study): 75.8%
- Proportion of patients who experienced an HAC during the study ([1]; non-OTC deficiencies): 19.4%
- 12-month incidence of HAC ([1]; non-white): 0.248
- Proportion of patients who experienced an HAC ([1]; non-white): 21.1%
- Proportion of patients with no HAC ([1]; non-white, during study): 78.9%
- 12-month incidence of HAC ([1]; pediatric (<18 years)): 0.209
- Proportion of patients who experienced an HAC ([1]; pediatric (<18 years)): 24.5%
- Proportion of patients with no HAC ([1]; pediatric <18 years, during study): 75.5%
- # of HA events [1, 7]: 3
- N with ≧1 HA events [1, 7]: 3
- # of HA events [1, 8]: 12
- N with ≧1 HA events [1, 8]: 9
- # of HA events [1, 9]: 12
- N with ≧1 HA events [1, 9]: 7
- # of HACs [1, 10]: 15
- Subjects with 1 or more HACs [1, 10]: 12
- 12-month incidence of HAC ([1]; white): 0.296
- Proportion of patients who experienced an HAC ([1]; white): 18.5%
- Proportion of patients with no HAC ([1]; white, during study): 81.5%
- TNAUC ammonia, mean ([2]; Month 0-3): 33.3
- TNAUC ammonia, mean (SD) ([2]; Month 0-3): 23.5 (13.62)
- TNAUC ammonia, mean ([2]; Month 0-6): 33.0
- TNAUC ammonia, mean (SD) ([2]; Month 0-6): 24.0 (13.85)
- TNAUC ammonia, mean ([2]; Month 0-9): 33.4
- TNAUC ammonia, mean (SD) ([2]; Month 0-9): 23.7 (12.56)
- TNAUC ammonia, mean ([2]; Month 0-12): 35.0
- TNAUC ammonia, mean (SD) ([2]; Month 0-12): 23.6 (11.94)
- Change of glutamine levels during GPB treatment ([3]; patients with the highest baseline glutamine, by three months of treatment): decreased
- Total glutamine exposure, TNAUC12month ([3]; subjects with an HAC during the study): 720.9 μmol/L*m
- Total glutamine exposure, TNAUC12month ([3]; subjects without an HAC during the study): 699.4 μmol/L*m
- Duration of HAC that lasted less than 2 days ([4]; overall): about 64%
- Duration of HA crisis 1-1.99 days ([4]; study 005): 0.0%
- Duration of HA crisis 2-2.99 days ([4]; study 005): 50.0%
- Duration of HA crisis <1 days ([4]; study 005): 50.0%
- Duration of HA crisis >3 days ([4]; study 005): 0.0%
- Duration of HA crisis, median ([4]; study 005): 1.27 days
- Duration of HA crisis, mean ([4]; study 005, N=2): 1.27 days
- Duration of HA crisis 1-1.99 days ([4]; study 007): 16.7%
- Duration of HA crisis 2-2.99 days ([4]; study 007): 33.3%
- Duration of HA crisis <1 days ([4]; study 007): 41.7%
- Duration of HA crisis >3 days ([4]; study 007): 8.3%
- Duration of HA crisis, median ([4]; study 007): 1.36 days
- Duration of HA crisis, mean ([4]; study 007, N=12): 1.95 days
- Duration of HA crisis 1-1.99 days ([4]; study 012): 18.2%
- Duration of HA crisis 2-2.99 days ([4]; study 012): 18.2%
- Duration of HA crisis <1 days ([4]; study 012): 54.6%
- Duration of HA crisis >3 days ([4]; study 012): 9.1%
- Duration of HA crisis, median ([4]; study 012): 0.92 days
- Duration of HA crisis, mean ([4]; study 012, N=11): 1.53 days
- Duration of HA crisis 1-1.99 days ([4]; total, N=25): 16.0%
- Duration of HA crisis 2-2.99 days ([4]; total, N=25): 28.0%
- Duration of HA crisis >3 days ([4]; total, N=25): 8.0%
- Duration of HA crisis, mean ([4]; total, N=25): 1.71 days
- Duration of HA crisis, median ([4]; total, N=25): 1.00 days
- Ammonia control of GPB versus NaPBA as assessed by venous ammonia [5]: non-inferiority
